Reference: ChEMBL document CHEMBL3046644, “Biological activity of tropolone” (Biol Pharm Bull, 2003)
Converted amounts (≈) assume the structure as drawn.

Columns and labels:
Thermolysin = target: T1, Thermolysin (Bacillus thermoproteolyticus, UniProt P00800); test: Inhibition of Bacillus thermoproteolyticus thermolysin after 15 min
T1 sequence (P00800 whole entry): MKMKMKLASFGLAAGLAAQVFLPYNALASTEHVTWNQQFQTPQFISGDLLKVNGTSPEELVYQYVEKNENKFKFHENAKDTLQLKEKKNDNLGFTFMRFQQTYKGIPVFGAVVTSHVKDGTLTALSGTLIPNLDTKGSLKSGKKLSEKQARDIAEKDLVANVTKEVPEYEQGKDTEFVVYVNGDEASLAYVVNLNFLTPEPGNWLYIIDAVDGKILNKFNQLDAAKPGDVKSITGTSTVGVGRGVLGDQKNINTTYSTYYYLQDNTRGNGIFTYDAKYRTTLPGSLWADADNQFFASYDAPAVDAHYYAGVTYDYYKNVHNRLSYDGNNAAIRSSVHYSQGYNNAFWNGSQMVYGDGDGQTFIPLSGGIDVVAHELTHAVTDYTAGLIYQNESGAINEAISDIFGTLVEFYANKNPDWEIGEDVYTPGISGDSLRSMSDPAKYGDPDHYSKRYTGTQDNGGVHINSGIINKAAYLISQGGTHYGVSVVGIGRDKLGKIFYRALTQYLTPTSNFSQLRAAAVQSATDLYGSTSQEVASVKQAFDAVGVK

Carboxypeptidase A1 = target: T2, Carboxypeptidase A1 (Bos taurus, UniProt P00730); test: Inhibition of Bos taurus (bovine) pancrease carboxypeptidase A after 15 min
T2 sequence (P00730 whole entry): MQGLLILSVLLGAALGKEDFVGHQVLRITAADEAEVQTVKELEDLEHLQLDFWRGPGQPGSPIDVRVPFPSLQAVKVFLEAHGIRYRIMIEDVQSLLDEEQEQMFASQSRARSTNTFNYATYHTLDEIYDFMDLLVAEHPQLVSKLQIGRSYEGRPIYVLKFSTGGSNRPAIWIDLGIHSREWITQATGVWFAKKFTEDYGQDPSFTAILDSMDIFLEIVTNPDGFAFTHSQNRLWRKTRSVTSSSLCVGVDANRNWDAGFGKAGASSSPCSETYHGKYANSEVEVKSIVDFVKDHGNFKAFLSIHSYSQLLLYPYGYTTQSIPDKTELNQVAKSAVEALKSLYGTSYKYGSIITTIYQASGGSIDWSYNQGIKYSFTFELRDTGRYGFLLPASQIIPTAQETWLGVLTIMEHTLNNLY

Collagenase ColG = target: T3, Collagenase ColG (Clostridium histolyticum, UniProt Q9X721); test: Inhibition of Clostridium histolyticum collagenase after 15 min; parameters: species or system Hathewaya histolytica
T3 sequence (Q9X721 whole entry): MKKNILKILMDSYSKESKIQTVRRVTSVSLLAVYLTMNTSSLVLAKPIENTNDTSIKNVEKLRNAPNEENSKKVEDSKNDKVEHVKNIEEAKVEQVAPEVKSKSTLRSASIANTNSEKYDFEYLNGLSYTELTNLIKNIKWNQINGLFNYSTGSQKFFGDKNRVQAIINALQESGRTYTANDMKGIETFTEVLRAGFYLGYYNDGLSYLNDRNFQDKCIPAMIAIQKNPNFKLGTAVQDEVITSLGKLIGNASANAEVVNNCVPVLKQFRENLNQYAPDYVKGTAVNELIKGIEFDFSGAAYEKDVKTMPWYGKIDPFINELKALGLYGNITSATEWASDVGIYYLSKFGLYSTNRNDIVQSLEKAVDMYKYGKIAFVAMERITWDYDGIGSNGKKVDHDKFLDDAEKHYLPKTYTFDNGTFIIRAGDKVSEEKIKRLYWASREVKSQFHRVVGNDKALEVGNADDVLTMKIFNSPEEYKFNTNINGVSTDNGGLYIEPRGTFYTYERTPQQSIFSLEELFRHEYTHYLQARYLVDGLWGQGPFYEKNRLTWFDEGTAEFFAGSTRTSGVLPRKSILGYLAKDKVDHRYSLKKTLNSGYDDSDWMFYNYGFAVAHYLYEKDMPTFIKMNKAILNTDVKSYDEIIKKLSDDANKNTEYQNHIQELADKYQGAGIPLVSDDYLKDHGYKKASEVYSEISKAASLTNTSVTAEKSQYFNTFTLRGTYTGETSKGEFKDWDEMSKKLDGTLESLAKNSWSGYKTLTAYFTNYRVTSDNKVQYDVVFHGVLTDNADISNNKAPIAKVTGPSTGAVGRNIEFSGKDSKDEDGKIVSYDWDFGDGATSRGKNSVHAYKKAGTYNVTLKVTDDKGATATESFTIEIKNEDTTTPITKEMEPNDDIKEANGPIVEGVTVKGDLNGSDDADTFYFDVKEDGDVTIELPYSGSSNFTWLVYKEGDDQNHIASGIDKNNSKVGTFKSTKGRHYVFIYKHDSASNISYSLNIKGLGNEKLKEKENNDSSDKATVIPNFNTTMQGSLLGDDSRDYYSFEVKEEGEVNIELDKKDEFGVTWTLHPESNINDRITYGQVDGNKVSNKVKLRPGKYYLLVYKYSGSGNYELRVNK

Coptotermes formosanus [1] = test: Insecticidal activity against Coptotermes formosanus assessed as mortality at 0.020 g/m'2 after 48 hr; type: functional
Dermatophagoides farinae [2] = test: Insecticidal activity against Dermatophagoides farinae assessed as mortality at 0.10 g/m'2 after 24 hr by clip method; type: functional
Coptotermes formosanus [3] = test: Insecticidal activity against Coptotermes formosanus assessed as mortality; type: functional
Tyrophagus putrescentiae [4] = test: Insecticidal activity against Tyrophagus putrescentiae assessed as mortality at 0.20 g/m'2 after 24 hr by clip method; type: functional
Tyrophagus putrescentiae [5] = test: Insecticidal activity against Tyrophagus putrescentiae assessed as mortality after 24 hr by clip method; type: functional
Tyrophagus putrescentiae [6] = test: Insecticidal activity against Tyrophagus putrescentiae assessed as mortality at 0.40 g/m'2 after 24 hr by clip method; type: functional
Coptotermes formosanus [7] = test: Insecticidal activity against Coptotermes formosanus assessed as mortality at 0.010 g/m'2 after 24 hr; type: functional
Dermatophagoides farinae [8] = test: Insecticidal activity against Dermatophagoides farinae assessed as mortality after 24 hr by clip method; type: functional
Phomopsis obscurans = test: Antifungal activity against Phomopsis obscurans MAFF 744018 after 15 days by agar dilution method; type: functional; conditions: Paraphomopsis obscurans, MAFF 744018, 360 h
Thanatephorus cucumeris = test: Antifungal activity against Thanatephorus cucumeris IFO 30445 after 15 days by agar dilution method; type: functional; conditions: IFO 30445, 360 h
Coptotermes formosanus [9] = test: Insecticidal activity against Coptotermes formosanus assessed as mortality at 1 g/m'2 after 24 hr; type: functional
Fusarium solani = test: Antifungal activity against Fusarium solani IFO 9955 after 15 days by agar dilution method; type: functional; conditions: IFO 9955, 360 h
Dermatophagoides farinae [10] = test: Insecticidal activity against Dermatophagoides farinae assessed as mortality at 0.60 g/m'2 after 24 hr by clip method; type: functional
Coptotermes formosanus [11] = test: Insecticidal activity against Coptotermes formosanus assessed as mortality at 0.200 g/m'2 after 24 hr; type: functional
Dermatophagoides farinae [12] = test: Insecticidal activity against Dermatophagoides farinae assessed as mortality at 0.05 g/m'2 after 24 hr by clip method; type: functional
Coptotermes formosanus [13] = test: Insecticidal activity against Coptotermes formosanus assessed as mortality at 0.050 g/m'2 after 24 hr; type: functional
Pythium aphanidermatum = test: Antifungal activity against Pythium aphanidermatum IFO 32440 after 15 days by agar dilution method; type: functional; conditions: IFO 32440, 360 h
Coptotermes formosanus [14] = test: Insecticidal activity against Coptotermes formosanus assessed as mortality at 0.050 g/m'2 after 48 hr; type: functional
Dermatophagoides farinae [15] = test: Insecticidal activity against Dermatophagoides farinae assessed as mortality at 0.80 g/m'2 after 24 hr by clip method; type: functional
Coptotermes formosanus [16] = test: Insecticidal activity against Coptotermes formosanus assessed as mortality at 0.010 g/m'2 after 48 hr; type: functional
Botrytis cinerea = test: Antifungal activity against Botryotinia fuckeliana IFO 30915 after 15 days by agar dilution method; type: functional; conditions: IFO 30915, 360 h
Coptotermes formosanus [17] = test: Insecticidal activity against Coptotermes formosanus assessed as mortality at 1 g/m'2 after 48 hr; type: functional
Colletotrichum lagenaria = test: Antifungal activity against Colletotrichum lagenaria after 15 days by agar dilution method; type: functional; conditions: 360 h
Tyrophagus putrescentiae [18] = test: Insecticidal activity against Tyrophagus putrescentiae assessed as mortality at 0.80 g/m'2 after 24 hr by clip method; type: functional
Dermatophagoides farinae [19] = test: Insecticidal activity against Dermatophagoides farinae assessed as mortality at 0.40 g/m'2 after 24 hr by clip method; type: functional
Tyrophagus putrescentiae [20] = test: Insecticidal activity against Tyrophagus putrescentiae assessed as mortality at 0.60 g/m'2 after 24 hr by clip method; type: functional
Dermatophagoides farinae [21] = test: Insecticidal activity against Dermatophagoides farinae assessed as mortality at 0.03 g/m'2 after 24 hr by clip method; type: functional
Coptotermes formosanus [22] = test: Insecticidal activity against Coptotermes formosanus assessed as mortality at 0.100 g/m'2 after 48 hr; type: functional
Coptotermes formosanus [23] = test: Insecticidal activity against Coptotermes formosanus assessed as mortality at 0.200 g/m'2 after 48 hr; type: functional
Tyrophagus putrescentiae [24] = test: Insecticidal activity against Tyrophagus putrescentiae assessed as mortality at 1 g/m'2 after 24 hr by clip method; type: functional
[25] = tested on: Colletotrichum orbiculare; test: Antifungal activity against Colletotrichum orbiculare MAFF 306518 after 15 days by agar dilution method; type: functional; conditions: MAFF 306518, 360 h
Dermatophagoides farinae [26] = test: Insecticidal activity against Dermatophagoides farinae assessed as mortality at 0.20 g/m'2 after 24 hr by clip method; type: functional
Coptotermes formosanus [27] = test: Insecticidal activity against Coptotermes formosanus assessed as mortality at 0.020 g/m'2 after 24 hr; type: functional
Coptotermes formosanus [28] = test: Insecticidal activity against Coptotermes formosanus assessed as mortality at 0.100 g/m'2 after 24 hr; type: functional
Dermatophagoides farinae [29] = test: Insecticidal activity against Dermatophagoides farinae assessed as mortality at 1 g/m'2 after 24 hr by clip method; type: functional

c1cnc2c(c1)ccc1cccnc12 [PHENANTHROLINE]
IC50 (Thermolysin): 360 µM
IC50 (Carboxypeptidase A1): 422 µM
IC50 (Collagenase ColG): 185 µM

O=c1cccccc1O [TROPOLONE]
mortality (Coptotermes formosanus [1]): 57.9%
mortality (Dermatophagoides farinae [2]): 24.5%
LC50 (Coptotermes formosanus [3]): 0.04 g/m2
mortality (Tyrophagus putrescentiae [4]): 9.6%
LC50 (Tyrophagus putrescentiae [5]): 0.11 g/m2
mortality (Tyrophagus putrescentiae [6]): 55.8%
mortality (Coptotermes formosanus [7]): 0%
LC50 (Dermatophagoides farinae [8]): 0.08 g/m2
MIC (Phomopsis obscurans): 12 µg/mL (≈ 98.3 µM)
MIC (Thanatephorus cucumeris): 12 µg/mL (≈ 98.3 µM)
IC50 (Thermolysin): 71.1 µM
IC50 (Carboxypeptidase A1): 2.73 µM
mortality (Coptotermes formosanus [9]): 100%
MIC (Fusarium solani): 25 µg/mL (≈ 205 µM)
mortality (Dermatophagoides farinae [10]): 100%
mortality (Coptotermes formosanus [11]): 100%
mortality (Dermatophagoides farinae [12]): 7.5%
mortality (Coptotermes formosanus [13]): 45%
MIC (Pythium aphanidermatum): 6 µg/mL (≈ 49.1 µM)
mortality (Coptotermes formosanus [14]): 77.8%
mortality (Dermatophagoides farinae [15]): 100%
mortality (Coptotermes formosanus [16]): 0%
MIC (Botrytis cinerea): 25 µg/mL (≈ 205 µM)
mortality (Coptotermes formosanus [17]): 100%
MIC (Colletotrichum lagenaria): 12 µg/mL (≈ 98.3 µM)
mortality (Tyrophagus putrescentiae [18]): 100%
mortality (Dermatophagoides farinae [19]): 100%
mortality (Tyrophagus putrescentiae [20]): 79.8%
mortality (Dermatophagoides farinae [21]): 0%
mortality (Coptotermes formosanus [22]): 89.5%
mortality (Coptotermes formosanus [23]): 100%
mortality (Tyrophagus putrescentiae [24]): 100%
MIC [25]: 12 µg/mL (≈ 98.3 µM)
IC50 (Collagenase ColG): 46.8 µM
mortality (Dermatophagoides farinae [26]): 95.7%
mortality (Coptotermes formosanus [27]): 37.5%
mortality (Coptotermes formosanus [28]): 78.9%
mortality (Dermatophagoides farinae [29]): 100%
